For one test, the target named is T1, JH2 domain of human Tyk2 (Homo sapiens, UniProt P29597).
T1 construct: 10×His-tagged TYK2 JH2 domain (amino acid 575-876)
Put plainly: JH2 biochemical assay (TR-FRET probe displacement). Type of test: binding. As to conditions: JH2 biochemical assay. The gist of the method: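 A probe-displacement TR-FRET readout: compounds, tested in 3-fold, 10-point dilutions starting at […], compete with 2 nM tracer for 2 nM His-tagged JH2 (residues 575-876) detected by 0.1 nM Tb-anti-His over 60 min. IC50 comes from 4-parameter fits of normalized 520/495 nm ratios.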

The subject of test [1] is Tyk2 kinase activity on STAT4. The experiment in a line: pSTAT4 cell assay (MSD, NK92 cells). As to conditions: compounds 1 hr, stimulated 15 minutes. Type of test: cell-based. The gist of the method: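 Cells natively expressing STAT4 and Tyk2 (NK92) are serum-starved to lower background phosphorylation, exposed to compound for 1 hr over a 10-point four-fold series starting at 10 μM, and stimulated with 30 ng/mL IL2 for 15 minutes. Phosphorylation is quantified on MSD with anti-STAT4 antibodies.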

Counter-ions that a name gives are not always drawn. A value given as a limit tells only on which side of the number the result lay.

T1 sequence (P29597 575-876): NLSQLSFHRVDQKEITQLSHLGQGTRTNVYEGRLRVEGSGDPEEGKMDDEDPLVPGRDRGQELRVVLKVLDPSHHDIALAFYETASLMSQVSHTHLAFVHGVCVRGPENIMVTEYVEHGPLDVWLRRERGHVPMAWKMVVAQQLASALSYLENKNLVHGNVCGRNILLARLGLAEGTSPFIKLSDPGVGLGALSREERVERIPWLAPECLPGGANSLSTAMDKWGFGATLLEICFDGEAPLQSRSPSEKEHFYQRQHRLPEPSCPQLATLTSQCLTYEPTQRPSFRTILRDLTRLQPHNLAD

Broadly, the IC50 is the concentration that inhibits the measured activity by half. Read a high IC50 as weaker potency. Take `CC(=O)Nc1cc2c(cn1)C1(CC1)CN2c1cc(CN2CCC2)nc(C(C)(F)F)n1` [Example 299, N-(1′-(6-(azetidin-1-ylmethyl)-2-(1,1-difluoroethyl)pyrimidin-4-yl)-1′,2′-dihydrospiro[cyclopropane-1,3′-pyrrolo[3,2-c]pyridin]-6′-yl)acetamide]: the values for the IC50 (on JH2 domain of human Tyk2; in test [1]) were 10 to 100 nM and 100 to 1000 nM, respectively.

`CC(=O)Nc1cc2c(cn1)C1(CC1)CN2c1cc(-c2ncn(C)n2)nc(C(C)(F)F)n1` [Example 300, N-(1′-(2-(1,1-difluoroethyl)-6-(1-methyl-1H-1,2,4-triazol-3-yl)pyrimidin-4-yl)-1′,2′-dihydrospiro[cyclopropane-1,3′-pyrrolo[3,2-c]pyridin]-6′-yl)acetamide]: the figures for the IC50 (at JH2 domain of human Tyk2; in test [1]) were ≤ 10 nM and 100 to 1000 nM, respectively.

With `CCn1ncc(-c2cc(N3CC4(CC4)c4cnc(NC(C)=O)cc43)nc(C(C)(F)F)n2)c1F` [Example 301, N-(1′-(2-(1,1-difluoroethyl)-6-(1-ethyl-5-fluoro-1H-pyrazol-4-yl)pyrimidin-4-yl)-1′,2′-dihydrospiro[cyclopropane-1,3′-pyrrolo[3,2-c]pyridin]-6′-yl)acetamide], the concentration for half-maximal inhibition (IC50) at JH2 domain of human Tyk2 is ≤ 10 nM; in test [1] it was 10 to 100 nM.

As for `CC(=O)Nc1cc2c(cn1)C1(CC1)CN2c1cc(CC#N)nc(C(C)(F)F)n1` [Example 303, N-(1′-(6-(cyanomethyl)-2-(1,1-difluoroethyl)pyrimidin-4-yl)-1′,2′-dihydrospiro[cyclopropane-1,3′-pyrrolo[3,2-c]pyridin]-6′-yl)acetamide], the concentration for half-maximal inhibition (IC50) is 10 to 100 nM at JH2 domain of human Tyk2 and ≥ 1000 nM in test [1].

As to `CCC(F)(F)c1nc(C)cc(N2CC3(CC3)c3cnc(NC(C)=O)cc32)n1` [Example 304, N-(1′-(2-(1,1-difluoropropyl)-6-methylpyrimidin-4-yl)-1′,2′-dihydrospiro[cyclopropane-1,3′-pyrrolo[3,2-c]pyridin]-6′-yl)acetamide trifluoroacetate], the 50% inhibitory concentration (IC50) at JH2 domain of human Tyk2 was ≤ 10 nM; in test [1], 10 to 100 nM.

`CC(=O)Nc1cc2c(cn1)C1(CC1)CN2c1cc(F)nc(C(C)(F)F)n1` [Example 305, N-(1′-(2-(1,1-difluoroethyl)-6-fluoropyrimidin-4-yl)-1′,2′-dihydrospiro[cyclopropane-1,3′-pyrrolo[3,2-c]pyridin]-6′-yl)acetamide trifluoroacetate]: the IC50 lay in the range of 10 to 100 nM on JH2 domain of human Tyk2 and 100 to 1000 nM in test [1].

Consider `CC(=O)Nc1cc2c(cn1)C1(CC1)CN2c1cc(C)cc(C23COC(C)(C2)C3)n1` [Example 306, N-(1′-(4-methyl-6-(1-methyl-2-oxabicyclo[2.1.1]hexan-4-yl)pyridin-2-yl)-1′,2′-dihydrospiro[cyclopropane-1,3′-pyrrolo[3,2-c]pyridin]-6′-yl)acetamide], for which the IC50 was 10 to 100 nM at JH2 domain of human Tyk2 and ≥ 1000 nM in test [1].

Turning to `CCc1cc(N2CC3(CC3)c3cnc(NC(N)=O)cc32)nc(C(C)(F)F)n1` [Example 309, 1-(1′-(2-(1,1-difluoroethyl)-6-ethylpyrimidin-4-yl)-1′,2′-dihydrospiro[cyclopropane-1,3′-pyrrolo[3,2-c]pyridin]-6′-yl)urea], the IC50 (on JH2 domain of human Tyk2; in test [1]) was ≤ 10 nM each time.

With `CC(=O)Nc1cc2c(cn1)C1(CC1)CN2c1cc(-c2cnn(C)c2F)nc(C(C)(F)F)n1` [Example 310, N-(1′-(2-(1,1-difluoroethyl)-6-(5-fluoro-1-methyl-1H-pyrazol-4-yl)pyrimidin-4-yl)-1′,2′-dihydrospiro[cyclopropane-1,3′-pyrrolo[3,2-c]pyridin]-6′-yl)acetamide], the figures for the concentration for half-maximal inhibition (IC50) (at JH2 domain of human Tyk2; in test [1]) were ≤ 10 nM and 10 to 100 nM, respectively.

`CCc1cc(N2CC3(CC3)c3cnc(NC(=O)OC)cc32)nc(C(C)(F)F)n1` [Example 311, Methyl (1′-(2-(1,1-difluoroethyl)-6-ethylpyrimidin-4-yl)-1′,2′-dihydrospiro[cyclopropane-1,3′-pyrrolo[3,2-c]pyridin]-6′-yl)carbamate trifluoroacetate]: the IC50 was ≤ 10 nM on JH2 domain of human Tyk2 and 10 to 100 nM in test [1].

Source of the values: patent publication US20260258032A1, “TYROSINE KINASE 2 INHIBITORS AND USES THEREOF” (BIOGEN MA INC., priority 2022, published 2026).
